Results published in patent US20040005537A1, “Method of identifying toxic agents using differential gene expression” (priority 2000, published 2004).

Assays:
[1] = tested on: rat heart tissue; assay: GENECALLING differential gene expression analysis after dosing of serotonin modulating agents; type: in vivo, Sprague Dawley rats
Protocol: Control animals received sterile water or canola oil. The animals were sacrificed 24 hours following the last dose. Liver tissue was dissected from the animals, and total RNA was recovered from the dissected tissue. cDNA was prepared and the resulting samples were processed through using GENECALLING™ differential expression analysis as described in U.S. Pat. No. 5,871,697 and in Shimkets et al., Nature Biotechnology 17:798-803 (1999). The contents of these patents and publications are incorporated herein by reference in their entirety.
Thousands of gene fragments were initially found to be differentially expressed in rat heart tissue in response to serotonin modulating agents in. Genes fragments whose expression levels were modulated greater than ±1.5-fold were selected for further analysis.
Column 6 of Table 1, entitled “Function”, lists the type of classification assigned for the protein, based on its function. The 210 single nucleic acid sequences identified herein, are referred to herein as CARDIOTOX 1-210.

[2] = grouping used to generate the distinguishing gene profiles; cited from earlier work

## CC(C)CC(N(C)C)C1(c2ccc(Cl)cc2)CCC1 (stereo not shown) [sibutramine]
[1]; CARDIOTOX 71
  Effects on Transcription Level: Novel gene fragment, 535 bp, 90% SI to mouse slow/cardiac troponin C [M29793]: −1.9 fold
[1]; CARDIOTOX 72
  Effects on Transcription Level: Novel gene fragment, 445 bp, 85% SI to human skeletal muscle alpha 2 actinin [M86406]: −2.2 fold
[1]; CARDIOTOX 73
  Effects on Transcription Level: Novel gene fragment, 246 bp, 89% SI to mouse ponsin-1 [AF078667]: −2.8 fold
[1]; CARDIOTOX 74
  Effects on Transcription Level: Novel gene fragment, 126 bp, 77% SI to human DNA sequence from cosmid V311G7, between markers DXS366 and DXS87 on chromosome X [Z69304]: +2.2 fold
[1]; CARDIOTOX 75
  Effects on Transcription Level: Novel gene fragment, 370 bp: −1.9 fold
[1]; CARDIOTOX 76
  Effects on Transcription Level: Novel gene fragment, 337 bp, 78% SI to novel human protein AHNAK [M80899]: −3.5 fold
[1]; CARDIOTOX 77
  Effects on Transcription Level: Novel gene fragment, 100 bp, 93% SI to human KIAA0750 protein [ABO18293]: −8.4 fold
[1]; CARDIOTOX 78
  Effects on Transcription Level: Novel gene fragment, 44 bp: −2.9 fold
[1]; CARDIOTOX 79
  Effects on Transcription Level: Novel gene fragment, 698 bp, 93% SI to mouse plenty-of-prolines-101 [AF062655]: −2.3 fold
[1]; CARDIOTOX 80
  Effects on Transcription Level: Novel gene fragment, 660 bp, 84% SI to mouse membrane protein TMS-2 [AF181685]: −1.9 fold
[1]; CARDIOTOX 81
  Effects on Transcription Level: Novel gene fragment, 115 bp: −13.1 fold
[1]; CARDIOTOX 82
  Effects on Transcription Level: Novel gene fragment, 294 bp, 95% SI to mouse Ndr1 related protein Ndr2 [AB033921]: −3.3 fold
[1]; CARDIOTOX 83
  Effects on Transcription Level: Novel gene fragment, 198 bp: +3.1 fold
[1]; CARDIOTOX 84
  Effects on Transcription Level: Novel gene fragment, 730 bp, 86% SI to mouse E800 [Y10968]: −2.1 fold
[1]; CARDIOTOX 85
  Effects on Transcription Level: Novel gene fragment, 294 bp, 98% SI to cysteine conjugate beta-lyase [S61960]: −2.1 fold
[1]; CARDIOTOX 86, GenBank A1243266
  Effects on Transcription Level: Aconitase: −2.9 fold
[1]; CARDIOTOX 87, GenBank M17422
  Effects on Transcription Level: Ribosomal protein L7: +3.7 fold
[1]; CARDIOTOX 88, GenBank X51706
  Effects on Transcription Level: Ribosomal protein L9: +8.0 fold
[1]; CARDIOTOX 89, GenBank X53504
  Effects on Transcription Level: Ribosomal protein L12: −1.5 fold
[1]; CARDIOTOX 90, GenBank V01270
  Effects on Transcription Level: 18S, 5.8S, and 28S ribosomal RNA's: +6 fold
[1]; CARDIOTOX 91, GenBank U10357
  Effects on Transcription Level: Pyruvate dehydrogenase kinase 2 (PDK2): −9.5 fold
[1]; CARDIOTOX 92, GenBank J03179
  Effects on Transcription Level: D-Binding Protein (DBP): −1.7 fold
[1]; CARDIOTOX 93, GenBank L03294
  Effects on Transcription Level: Lipoprotein lipase: −2.5 fold
[1]; CARDIOTOX 94, GenBank X02610
  Effects on Transcription Level: Non-neuronal enolase: +3.1 fold
[1]; CARDIOTOX 95, GenBank L10669
  Effects on Transcription Level: Glycogen phosphorylase (muscle isozyme): −2.0 fold
[1]; CARDIOTOX 96, GenBank X14209
  Effects on Transcription Level: Cytochrome c oxidase subunit IV: +8.0 fold
[1]; CARDIOTOX 97, GenBank M17083
  Effects on Transcription Level: Alpha-globin: +7.0 fold
[1]; CARDIOTOX 98, GenBank X06701
  Effects on Transcription Level: Beta-globin: +5.0 fold
[1]; CARDIOTOX 99, GenBank AF197916
  Effects on Transcription Level: Myoglobin: +7.0 fold
[1]; CARDIOTOX 100, GenBank L38717
  Effects on Transcription Level: Titin: +1.5 fold
[1]; CARDIOTOX 101, GenBank V01218
  Effects on Transcription Level: Skeletal muscle actin: −3.8 fold
[1]; CARDIOTOX 102, GenBank M11851
  Effects on Transcription Level: Myosin light chain 2 (MLC2): +1.9 fold
[1]; CARDIOTOX 103, GenBank X15938
  Effects on Transcription Level: Alpha cardiac myosin heavy chain: −3.2 fold
[1]; CARDIOTOX 104, GenBank U77354
  Effects on Transcription Level: Troponin I: +1.6 fold
[1]; CARDIOTOX 105, GenBank AF001334
  Effects on Transcription Level: Cardiac calsequestrin: −2.5 fold
[1]; CARDIOTOX 106, GenBank M16975
  Effects on Transcription Level: Sulfated glycoprotein 2: −1.5 fold
[1]; CARDIOTOX 107, GenBank AB000507
  Effects on Transcription Level: Aquaporin 7: +1.6 fold
[1]; CARDIOTOX 108, GenBank X97831
  Effects on Transcription Level: Carnitine/acylcarnitine carrier protein: −1.9 fold
[1]; CARDIOTOX 109, GenBank U40628
  Effects on Transcription Level: Glu-Pro Dipeptide Repeat: −5.5 fold
[1]; CARDIOTOX 110, GenBank X54737
  Effects on Transcription Level: Cystatin beta: +3.1 fold
[1]; CARDIOTOX 111
  Effects on Transcription Level: Novel gene fragment, 593 bp, 90% SI to human calcineurin B-like protein [Z08983]: +2.1 fold
[1]; CARDIOTOX 112
  Effects on Transcription Level: Novel gene fragment, 179 bp, 88% SI to human titin [X90568]: −2.0 fold
[1]; CARDIOTOX 113
  Effects on Transcription Level: Novel gene fragment, 700 bp, 91% SI to mouse periplakin (PPL) [AF116523]: +2.2 fold
[1]; CARDIOTOX 114, GenBank J05029
  Effects on Transcription Level: Long chain acyl-CoA dehydrogenase (LCAD): +1.8 fold
[1]; CARDIOTOX 115, GenBank M19936
  Effects on Transcription Level: Sulfated glycoprotein 1 (SGP-1): −2.3 fold
[1]; CARDIOTOX 116, GenBank M11670
  Effects on Transcription Level: Catalase: +1.8 fold
[1]; CARDIOTOX 117, GenBank AF084186
  Effects on Transcription Level: Alpha-fodrin (A2A) (Nonerythroid spectrin alpha subunit): +5.0 fold
[1]; CARDIOTOX 118, GenBank M27902
  Effects on Transcription Level: Cardiac specific sodium channel alpha-subunit: −2.9 fold
[1]; CARDIOTOX 119, GenBank U40628
  Effects on Transcription Level: Glu-Pro Dipeptide Repeat: +6.0 fold
[1]; CARDIOTOX 120
  Effects on Transcription Level: Novel gene fragment, 200 bp, 64% SI to human KIAA0733 protein [AB018316]: −1.5 fold
[1]; CARDIOTOX 121, GenBank L42855
  Effects on Transcription Level: RNA polymerase II transcription factor SIII (p18 subunit): +2.0 fold
[1]; CARDIOTOX 122, GenBank L01702
  Effects on Transcription Level: Protein-tyrosine phosphalase (LRP): +1.5 fold
[1]; CARDIOTOX 123, GenBank U25264
  Effects on Transcription Level: Skeletal muscle selenoprotein W (SelW): −1.5 fold
[1]; CARDIOTOX 124, GenBank X15635
  Effects on Transcription Level: Sarcoplasmic reticulum 2+-Ca-ATPase: −2.0 fold
[1]; CARDIOTOX 125, GenBank X53377
  Effects on Transcription Level: Ribosomal protein S7: +1.8 fold
[1]; CARDIOTOX 126, GenBank X05300
  Effects on Transcription Level: Ribophorin I: +1.6 fold
[1]; CARDIOTOX 127, GenBank X15939
  Effects on Transcription Level: Beta cardiac myosin heavy chain: −1.7 fold
[1]; CARDIOTOX 128, GenBank L12380
  Effects on Transcription Level: ADP-ribosylation factor 1: −2.0 fold
[1]; CARDIOTOX 129, GenBank U04942
  Effects on Transcription Level: Laminin receptor: +4.6 fold
[1]; CARDIOTOX 130
  Effects on Transcription Level: Novel gene fragment, 206 bp, 89% SI to human seryl-tRNA synthetase [X91257]: +1.4 fold
[1]; CARDIOTOX 131, GenBank X86086
  Effects on Transcription Level: Annexin VI: +1.4 fold
[1]; CARDIOTOX 132
  Effects on Transcription Level: Novel gene fragment, 325 bp, 90% SI to mouse N-RAP [U76618]: −1.1 fold
[1]; LD10 dose for three days
  Effects on Transcription Level: Novel gene fragment, 61 bp (CARDIOTOX 134): +1.0 fold
  Effects on Transcription Level: Novel gene fragment, 337 bp (CARDIOTOX 133): −1.1 fold
  Effects on Transcription Level: Novel gene fragment, 378 bp, 88% SI to human coatomer protein (COPA) [U24105] (CARDIOTOX 138): −2.3 fold
[1]; LD10 dose for three days, GenBank D16479
  Effects on Transcription Level: Long chain 3-ketoacyl-CoA thiolase (CARDIOTOX 136): −2.0 fold
[1]; LD10 dose for three days, GenBank D87671
  Effects on Transcription Level: TATA-binding protein interacting protein 120 (TIP120) (CARDIOTOX 135): +1.3 fold
[1]; LD10 dose for three days, GenBank D88250
  Effects on Transcription Level: Serine protease (CARDIOTOX 139): +1.3 fold
[1]; LD10 dose for three days, GenBank M34043
  Effects on Transcription Level: Thymosin beta-4 (CARDIOTOX 137): +1.5 fold
[2]
  classification as cardiotoxic or noncardiotoxic serotonin modulating agent: noncardiotoxic
